# Measured values reported in ChEMBL document CHEMBL1201862, “PubChem BioAssay data set” (2004).
# Calls of active or inactive are those of the source.
# Assays:
# Cytochrome P450 2C9 = Cytochrome P450 2C9 (Homo sapiens, UniProt P11712)
# [1] = system: Streptococcus sp. 'group A'; experiment: growth inhibition of control SK(-) GAS strain, dose response, counter-screen for streptokinase expression inhibitor project, luminescence, kanamycin, BacTiterGlo, confirmation (AID 1900); format: functional, organism-based
# Streptococcus = experiment: Group A Streptococcus viability loss, dose response, counter-screen for streptokinase expression inhibitor project, luminescence, BacTiterGlo (AID 1915); format: functional, organism-based;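 further: potency for reduction of bacterial viability or growth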
# Cytochrome P450 2C19 = Cytochrome P450 2C19 (Homo sapiens, UniProt P33261); experiment: Cytochrome panel assay with activity outcomes. Panel member name: p450-cyp2c19 Compounds with AC50 equal or less than 10 uM are considered active; format: functional; conditions: read-out: AC50
# Chain of Cytochrome P450 2C19 (P33261 whole entry): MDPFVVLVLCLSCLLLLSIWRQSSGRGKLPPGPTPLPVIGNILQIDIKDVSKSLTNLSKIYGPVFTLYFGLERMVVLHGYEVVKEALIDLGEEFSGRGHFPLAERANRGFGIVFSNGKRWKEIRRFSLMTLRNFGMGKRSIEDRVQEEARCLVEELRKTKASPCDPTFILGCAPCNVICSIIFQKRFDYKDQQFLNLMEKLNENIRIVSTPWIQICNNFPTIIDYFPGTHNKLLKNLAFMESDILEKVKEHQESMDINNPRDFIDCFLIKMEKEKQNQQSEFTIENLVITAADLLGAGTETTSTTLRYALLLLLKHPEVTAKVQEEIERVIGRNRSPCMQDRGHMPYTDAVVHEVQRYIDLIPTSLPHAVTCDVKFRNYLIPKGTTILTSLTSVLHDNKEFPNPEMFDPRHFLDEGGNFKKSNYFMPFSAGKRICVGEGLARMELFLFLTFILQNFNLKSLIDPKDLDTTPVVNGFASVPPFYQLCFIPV
# [2] = inhibitors of intracellular T. cruzi replication, confirmation, NIH3T3 host cells, beta-gal luminescence (AID 2044); format: functional, cell-based;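 further: intracellular parasites grown in NIH/3T3 mouse fibroblasts as host cells; luminescent beta-galactosidase reporter signal from transgenic T. cruzi replicating inside host cells; inhibitors lower the luminescence signal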
# [3] = cytotoxicity toward NIH3T3 fibroblasts, dose response, counter-screen, cell-based, ATP luminescence, mouse fibroblasts (AID 2010); format: functional;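 further: cells exposed to compound for about 90 hours before reading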
# Chain of Cytochrome P450 2C9 (P11712 whole entry): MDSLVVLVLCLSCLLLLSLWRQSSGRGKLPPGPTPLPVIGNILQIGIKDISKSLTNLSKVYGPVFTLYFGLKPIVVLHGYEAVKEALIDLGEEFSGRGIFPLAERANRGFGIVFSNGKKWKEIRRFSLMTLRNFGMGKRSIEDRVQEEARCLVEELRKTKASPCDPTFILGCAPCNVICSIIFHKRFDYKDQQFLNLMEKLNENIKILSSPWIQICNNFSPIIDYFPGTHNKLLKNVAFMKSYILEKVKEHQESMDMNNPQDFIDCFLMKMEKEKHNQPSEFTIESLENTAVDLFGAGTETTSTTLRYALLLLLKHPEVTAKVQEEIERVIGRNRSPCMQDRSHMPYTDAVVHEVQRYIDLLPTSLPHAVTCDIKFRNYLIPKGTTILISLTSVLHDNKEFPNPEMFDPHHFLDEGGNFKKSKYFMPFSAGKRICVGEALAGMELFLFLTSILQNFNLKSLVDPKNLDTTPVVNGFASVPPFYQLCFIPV
Structure (SMILES),EC50 [2],EC50 [3],other results
COc1ccc(C(=O)c2c[nH]c(C(=O)NCc3cccs3)c2)cc1,,,AC50 (Cytochrome P450 2C9): 0.251 µM (inconclusive)
Cc1cc(-c2cc(C)c(O)c(C(C)(C)C)c2)cc(C(C)(C)C)c1O,,,AC50 (Cytochrome P450 2C9): 5.01 µM (inconclusive)
CC(=O)OCC1=C(C(=O)O)N2C(=O)C(NC(=O)C(C)Cn3nc(C)c(Cl)c3C)C2SC1 (stereo unspecified),,,EC50 [1]: 3.56 µM (active); EC50 (Streptococcus): 5.07 µM (active)
O=C1C=C(Nc2nc(C(=O)O)cc(=O)[nH]2)c2ccccc2C1=O,,,AC50 (Cytochrome P450 2C19): 3.16 µM (inconclusive)
Cc1nc(-c2ccccn2)nc(N(C)c2ccccc2)c1Cl,3.26 µM (active),> 60 µM (not active),
CCCc1nn2c(O)c(C(c3ccc(C)cc3)c3c(O)n4nc(CCC)sc4nc3=O)c(=O)nc2s1,,,AC50 (Cytochrome P450 2C9): 12.6 µM (inconclusive)
CCOC(=O)Cn1nnc2c(sc3nc4c(c(-c5ccc(Cl)cc5)c32)CCC4)c1=O,,,AC50 (Cytochrome P450 2C19): 7.08 µM (inconclusive)
COc1ccccc1N1CCN(C(=O)c2ccc3[nH]c4c(c3c2)CC(C)CC4)CC1 (stereo unspecified),2 µM (active),> 60 µM (not active),
COC(=O)[C@@]1(Cc2ccc(OC)cc2)[C@H]2c3cc(C(=O)N4CCCC4)n(C[C@H](O)CO)c3C[C@H]2CN1C(=O)c1ccccc1,,,AC50 (Cytochrome P450 2C19): 39.8 µM (inconclusive); AC50 (Cytochrome P450 2C9): 31.6 µM (inconclusive)
CO[C@H]1C=CO[C@@]2(C)Oc3c(C)c(O)c4c(O)c(c5c(c4c3C2=O)=NC2(CCN(CC(C)C)CC2)N=5)NC(=O)C(C)=CC=C[C@H](C)[C@H](O)[C@@H](C)[C@@H](O)[C@@H](C)[C@H](OC(C)=O)[C@@H]1C,,,EC50 [1]: < 0.06 µM (active); EC50 (Streptococcus): < 0.06 µM (active)
CC(NCC(O)COC1CCC(C(C)(C)C)CC1)c1ccccc1 (stereo unspecified),0.114 µM (active),> 60 µM (not active),
CCCCCOc1ccc(Cn2ccnc2)cc1[N+](=O)[O-],2.21 µM (active),> 60 µM (not active),
CC(C(=O)NC1C(=O)N2C(C(=O)O)=C(CSc3nnnn3C)CSC12)n1cc(Br)cn1 (stereo unspecified),,,EC50 [1]: 0.101 µM (active); EC50 (Streptococcus): 0.125 µM (active)
COc1cccc(CN(C)CC2CCCN(CCc3ccccc3C)C2)c1 (stereo unspecified),0.184 µM (active),24.6 µM (active),
COc1ccc(C2CC(c3ccc(C)cc3)Nc3nc(N)nn32)cc1 (stereo unspecified),7.21 µM (active),> 60 µM (not active),
CC(C(=O)Nc1ccc(F)c(F)c1F)N(C)CC(=O)Nc1ccccc1Br (stereo unspecified),1.71 µM (active),> 60 µM (not active),
CCN(CC)S(=O)(=O)c1ccc(C)c(NC(=O)Cn2cnc3cc([N+](=O)[O-])ccc3c2=O)c1,0.406 µM (active),> 60 µM (not active),
Cc1ccc(C)c(N2CCN(C(=O)c3ccc(Cn4c(=O)[nH]c5ccccc5c4=O)cc3)CC2)c1,0.687 µM (active),> 60 µM (not active),
Cc1cc(C(=O)CCl)c(C)n1Cc1ccco1,3.3 µM (active),7.2 µM (active),
CCC(NC(=O)c1ccc([N+](=O)[O-])cc1[N+](=O)[O-])c1ccccc1 (stereo unspecified),0.879 µM (active),> 60 µM (not active),
CCCCN1C(=O)NC(=O)/C(=C(/CC)NCCCN(C)C)C1=O,0.236 µM (active),> 60 µM (not active),
COc1cccc(Cn2c(=O)c(C)nc3cnc(N4CCNCC4)nc32)c1,,,AC50 (Cytochrome P450 2C19): 39.8 µM (inconclusive)
CCN(CC)CCN(C(=O)C1=COCCO1)c1nc2ccc(C)cc2s1,0.384 µM (active),> 60 µM (not active),
N=C1/C(=N/Nc2cccc(Cl)c2)C(=O)NN1c1ccccc1,,,AC50 (Cytochrome P450 2C9): 1.26 µM (inconclusive)
COc1cc(/C=N/NC(=O)c2nc3ccccn3c2C)cc(OC)c1O,> 60 µM (not active),> 60 µM (not active),
COc1ccc(/C=N/NC(N)=S)cc1OC(=O)c1cccc2ccccc12,,,AC50 (Cytochrome P450 2C9): 6.31 µM (inconclusive)
Cc1cc(N/N=C/c2ccc(Cl)cc2)nc(NCc2ccccc2)n1,1.82 µM (active),11.4 µM (active),
